Measured values reported in paper PMC10140010 (Investigational New Drugs, 2023).
“And” between values parts separate entries of the source, which are not always exact repeats. Identical values can stand only once. Blank lines part the entries; values can stand above or below the compound they belong to.

How the values were obtained:
OATP1B3 = assay: Uptake substrate investigation in HEK293 cells expressing transporter
OAT1 = assay: as above; conditions: ATV 1 μM, no inhibitor, OAT1 pre-test
OAT3 = assay: as above; conditions: ATV 1 μM, no inhibitor, OAT3 pre-test
[1] = test system: LU-01-0015 (HIP-ALK) patient derived lung-tumor xenografts; assay: LU-01-0015 patient-derived xenograft model (tumor volume, body weight); assay type: in vivo, BALB/c nude mice; conditions: LU-01-0015 and NCI-H3122 xenograft models, all P < 0.05
Procedure: Female BALB/c nude mice (4–6 weeks old) were provided by Shanghai Sipple-Bikai Laboratory Animal Co., Ltd. and Beijing Vital River Laboratory Animal Technology Co., Ltd. The mice were housed in a specific pathogen-free environment under a 12 h light/dark cycle, and had free access to sterile animal feed and water.
PDX and CDX models were used for in vivo studies. Patient-derived tumors tissues were divided into about 30 mm^3 and transplanted into the right dorsal subcutis. Treatment began when the tumor size reached to 200 mm^3. The mice were randomly assignied into the corresponding dosing groups (9 mice in each group). Drugs were deliverd via daily oral for 4 weeks. Tumor size was measured periodically using a digital caliper (Cal Pro, Sylvac, Switzerland), and tumor volume was calculated as 0.5 × length × width^2. For more detailed information, please refer to Supplementary materials. All procedures and protocols of xenograft models were approved by the Institutional Animal Care and Use Committee of WuXi AppTec.
Patient-derived tumor tissue was segmented into small pieces of approximately 20–30 mm^3 and transplanted subcutaneously into the right back of mice. When the tumor volume reached 150-200 mm^3, the mice were randomly divided into corresponding groups (9 mice in each group, female). Administered by gavage once daily for 4 weeks.

ALK = conditions: cited from earlier work
BCRP = target: T1, BCRP (Homo sapiens, UniProt Q9UNQ0); assay: ABC efflux transporter inhibitor test on Caco-2 cells (E3S efflux)
T1 sequence (Q9UNQ0 1-655): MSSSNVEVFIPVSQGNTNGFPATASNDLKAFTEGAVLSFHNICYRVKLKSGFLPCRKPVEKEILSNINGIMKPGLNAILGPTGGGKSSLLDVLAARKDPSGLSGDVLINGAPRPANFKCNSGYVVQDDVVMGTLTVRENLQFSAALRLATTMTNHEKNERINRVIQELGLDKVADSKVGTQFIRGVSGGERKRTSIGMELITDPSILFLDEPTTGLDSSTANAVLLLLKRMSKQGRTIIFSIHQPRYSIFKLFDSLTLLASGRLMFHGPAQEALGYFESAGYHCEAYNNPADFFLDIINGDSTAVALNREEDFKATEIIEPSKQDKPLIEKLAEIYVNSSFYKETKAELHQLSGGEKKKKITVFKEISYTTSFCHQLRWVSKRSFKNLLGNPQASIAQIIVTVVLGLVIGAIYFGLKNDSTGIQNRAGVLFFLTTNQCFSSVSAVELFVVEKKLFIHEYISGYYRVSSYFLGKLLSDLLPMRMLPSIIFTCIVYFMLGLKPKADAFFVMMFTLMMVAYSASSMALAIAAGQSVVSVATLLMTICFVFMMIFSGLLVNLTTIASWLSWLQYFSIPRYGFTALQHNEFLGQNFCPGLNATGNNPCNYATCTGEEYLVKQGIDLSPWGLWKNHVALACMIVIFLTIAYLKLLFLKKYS

MATE1 [2] = target: T2, MATE1 (Homo sapiens, UniProt Q96FL8); assay: Substrate investigation in HEK293 cells expressing transporter; assay type: in vitro ADME; design: No ESH8G27; host or cells: HEK293; conditions: MPP 10 μM, no inhibitor, pre-test
T2 sequence (Q96FL8 1-570): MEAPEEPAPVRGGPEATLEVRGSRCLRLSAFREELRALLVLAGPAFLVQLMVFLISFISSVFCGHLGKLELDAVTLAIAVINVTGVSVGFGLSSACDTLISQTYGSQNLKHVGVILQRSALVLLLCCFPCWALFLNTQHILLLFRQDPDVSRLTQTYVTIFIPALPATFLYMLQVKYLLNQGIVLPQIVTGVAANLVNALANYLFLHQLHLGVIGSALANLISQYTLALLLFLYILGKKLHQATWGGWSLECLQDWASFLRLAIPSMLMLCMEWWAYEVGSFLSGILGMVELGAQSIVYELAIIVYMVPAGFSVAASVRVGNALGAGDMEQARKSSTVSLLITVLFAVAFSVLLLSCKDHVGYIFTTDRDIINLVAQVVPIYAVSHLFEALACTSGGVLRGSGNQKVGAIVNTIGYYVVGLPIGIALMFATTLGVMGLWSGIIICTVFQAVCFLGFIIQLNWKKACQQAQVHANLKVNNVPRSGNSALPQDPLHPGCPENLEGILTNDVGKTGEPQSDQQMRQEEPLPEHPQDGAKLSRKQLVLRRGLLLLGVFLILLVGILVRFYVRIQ

OCT2 = target: T3, OCT2 (Homo sapiens, UniProt O15244); assay: Uptake substrate investigation in HEK293 cells expressing transporter; assay type: in vitro ADME; conditions: 20 μM, Suppl. Table 11
T3 construct: No ESH9G27; host or cells: HEK293
T3 sequence (O15244 1-555): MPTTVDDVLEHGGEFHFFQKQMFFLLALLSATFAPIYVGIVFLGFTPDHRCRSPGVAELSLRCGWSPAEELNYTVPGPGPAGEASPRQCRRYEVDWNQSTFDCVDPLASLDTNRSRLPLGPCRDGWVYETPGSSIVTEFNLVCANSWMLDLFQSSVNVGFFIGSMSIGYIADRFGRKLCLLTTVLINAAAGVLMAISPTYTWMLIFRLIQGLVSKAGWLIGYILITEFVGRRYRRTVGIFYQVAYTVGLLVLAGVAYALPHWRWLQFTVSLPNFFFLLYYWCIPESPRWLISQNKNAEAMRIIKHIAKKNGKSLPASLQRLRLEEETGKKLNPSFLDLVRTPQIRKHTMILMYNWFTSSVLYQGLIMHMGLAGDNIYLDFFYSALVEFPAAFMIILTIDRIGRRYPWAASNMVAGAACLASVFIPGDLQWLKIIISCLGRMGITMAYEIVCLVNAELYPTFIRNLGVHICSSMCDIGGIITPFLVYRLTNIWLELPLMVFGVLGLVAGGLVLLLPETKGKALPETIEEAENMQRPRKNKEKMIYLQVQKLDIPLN

MATE1 [3] = target: T2, MATE1; assay: Uptake inhibitor investigation in HEK293 cells expressing transporter; conditions: HEK293 cells expressing MATE1, probe MPP, 10 μM
[4] = MOCK293, ATV 1 μM, no inhibitor, OATP1B3 pre-test
[5] = OATP1B1-293 (so in the source), ATV 1 μM, no inhibitor, OATP1B3 pre-test

SMILES: CC(C)c1c(C(=O)Nc2ccccc2)c(-c2ccccc2)c(-c2ccc(F)cc2)n1CC[C@@H](O)C[C@@H](O)CC(=O)O [ATV]
Uptake transport activity, Mean (OATP1B3; MOCK293 (OATP1B3 set), 1 μM, Suppl. Table 11): 2.359 pmol/mg protein/min | Uptake transport activity, Mean (OATP1B3; [4]): 3.030 pmol/mg protein/min | Uptake transport activity, Repeat 1 / Repeat 2 (OATP1B3; [4]): 2.810 pmol/mg protein/min and 3.250 pmol/mg protein/min | Uptake transport activity, Mean (OATP1B3; [5]): 13.60 pmol/mg protein/min | Uptake transport activity, Repeat 1 / Repeat 2 (OATP1B3; [5]): 14.30 pmol/mg protein/min and 12.90 pmol/mg protein/min | Uptake transport activity, Net value (OATP1B3; transporter cells vs MOCK293, ATV 1 μM, no inhibitor, OATP1B3 pre-test): 10.6 pmol/mg protein/min | Uptake transport activity, Mean (OAT1; MOCK293): 3.393 pmol/mg protein/min | Uptake transport activity, Repeat 1 / Repeat 2 (OAT1; MOCK293): 3.281 pmol/mg protein/min and 3.505 pmol/mg protein/min | Uptake transport activity, Mean (OAT1; OATP1B1-293 (so in the source)): 31.40 pmol/mg protein/min | Uptake transport activity, Repeat 1 / Repeat 2 (OAT1; OATP1B1-293 (so in the source)): 36.42 pmol/mg protein/min and 26.39 pmol/mg protein/min | Uptake transport activity, Net value (OAT1; transporter cells vs MOCK293): 28.01 pmol/mg protein/min | Uptake transport activity, Mean (OAT3; MOCK293): 75.16 pmol/mg protein/min | Uptake transport activity, Repeat 1 / Repeat 2 (OAT3; MOCK293): 59.57 pmol/mg protein/min and 90.74 pmol/mg protein/min | Uptake transport activity, Mean (OAT3; OATP1B1-293 (so in the source)): 727.9 pmol/mg protein/min | Uptake transport activity, Repeat 1 / Repeat 2 (OAT3; OATP1B1-293 (so in the source)): 731.6 pmol/mg protein/min and 724.2 pmol/mg protein/min | Uptake transport activity, Net value (OAT3; transporter cells vs MOCK293): 652.7 pmol/mg protein/min

SMILES: Cc1cc(Nc2ncc(Cl)c(Nc3ccccc3S(=O)(=O)C(C)C)n2)c(OC(C)C)cc1C1CCNCC1 [Ceritinib]
tumor growth inhibition [1]: able to inhibit tumor growth | GI50 (ALK; in vitro enzymatic study against ALK, read-out: half-maximal growth inhibition concentration (GI50)): 0.15 nM | fold more potent against ALK than crizotinib (ALK; in vitro enzymatic study): ~ 20 fold

SMILES: C[C@]12CC[C@@H]3c4ccc(OS(=O)(=O)O)cc4CC[C@H]3[C@@H]1CCC2=O [E3S, reference compound]
Exhaust Ratio Mean (BCRP; E3S 10 µM alone, Caco-2): 20.54

inhibition at 10 µM (BCRP; human, Caco-2 cells, probe E3S (10 µM), Exhaust inhibition rate (%), substrate E3S 10 µM, inhibitor 10 µM): 91.6% | Exhaust inhibition rate (%) (BCRP; substrate E3S 10 µM, inhibitor 10 µM): 91.7%
SMILES: COc1cc2c(cc1OC)CN(CCc1ccc(NC(=O)c3cccc4c(=O)c5cccc(OC)c5[nH]c34)cc1)CC2 [Elacridar, reference compound]

SMILES: C[n+]1ccc(-c2ccccc2)cc1 [MPP]
Uptake transport activity, Mean (MATE1 [2]; MATE1-293): 1162.7 pmol/mg protein/min | Uptake transport activity, Repeat 1 / Repeat 2 (MATE1 [2]; MATE1-293): 942.2 pmol/mg protein/min and 1383.2 pmol/mg protein/min | Ratio of uptake transit activity (MATE1 [2]; MATE1-293 vs MOCK293): 6.86 | Uptake transport activity, Net value (MATE1 [2]; MATE1-293 vs MOCK293): 993.3 pmol/mg protein/min | Uptake transport activity, Mean (MATE1 [2]; MOCK293): 169.4 pmol/mg protein/min | Uptake transport activity, Repeat 1 / Repeat 2 (MATE1 [2]; MOCK293): 163.5 pmol/mg protein/min and 175.3 pmol/mg protein/min

Uptake transport activity, Mean (OCT2; MOCK293 (OCT2 set)): 3.503 pmol/mg protein/min | Uptake transport activity, Mean (OCT2; OCT2-293): 82.72 pmol/mg protein/min | Ratio of uptake transit activity (OCT2; OCT2-293 vs MOCK293): 23.61 | Uptake transport activity, Net value (OCT2; OCT2-293 vs MOCK293): 79.21 pmol/mg protein/min
SMILES: CN(C)C(=N)N=C(N)N [Metformin]

inhibition at 2 μM (MATE1 [3]): 123%
SMILES: CCc1nc(N)nc(N)c1-c1ccc(Cl)cc1 [Pyrimethamine]
